Data from patent publication US8846933B2, “N-link hydroxamic acid derivatives useful as antibacterial agents” (Pfizer Inc., priority 2009, dated 2014).

Legend:
[1] = test system: Escherichia coli EC-1: VOGEL, mouse virulent; experiment: MIC determination (CLSI), strain EC-1; assay type: cell-based; conditions: strain EC-1, unit assumed
Experimental: (§1) The in vitro antibacterial activity of compounds described in the Examples was evaluated by minimum inhibitory concentration (MIC) testing according to Clinical and Laboratory Standards Institute (CLSI, formerly NCCLS) guidelines. See: Clinical and Laboratory Standards Institute. Methods for Dilution Antimicrobial Susceptibility Tests for Bacteria that Grow Aerobically; Approved Standard-Seventh Edition. CLSI document M7-A7 [ISBN 1-56238-587-9]. Clinical and Laboratory Standards Institute, 940 West Valley Road, Suite 1400, Wayne, Pa. 19087-1898 USA, 2006; also Clinical and Laboratory Standards Institute. Performance Standards for Antimicrobial Susceptibility Testing; Eighteenth Informational Supplement. CLSI document M100-S18 [ISBN1-56238-653-0].Clinical and Laboratory Standards Institute.
(§2) The following bacterial strains were used in these MIC determinations:
3) Escherichia coli EC-1: VOGEL, mouse virulent labeled as EC-1 in Tables 4 and 5;

[2] = test system: Pseudomonas aeruginosa UI-18: Wild-type (PA-7); experiment: MIC determination (CLSI), strain PA-7; assay type: cell-based; conditions: strain PA-7, unit assumed
Experimental: as §1, §2
1) Pseudomonas aeruginosa UI-18: Wild-type, labeled as PA-7 in Tables 4, and 5;

[3] = generated in the same manner as in Table 4

Row | SMILES | EC-1 (MIC) [1, 3] | PA-7 (MIC) [2, 3] | EC-1 (MIC) [1] | PA-7 (MIC) [2]
1 | CC(=O)c1ccccc1-c1ccn(CCC(C)(C(=O)NO)S(C)(=O)=O)c(=O)c1 (stereo not shown) [Example 140, 4-[4-(2-acetylphenyl)-2-oxopyridin-1(2H)-yl]-N-hydroxy-2-methyl-2-(methylsulfonyl)butanamide] | > 64 mg/L | > 64 mg/L | – | –
2 | CC(CCn1ccc(-c2ccc(OCc3ccncc3)cc2)cc1=O)(C(=O)NO)S(C)(=O)=O (stereo not shown) [Example 268, N-hydroxy-2-methyl-2-(methylsulfonyl)-4-{2-oxo-4-[4-(pyridin-4-ylmethoxy)phenyl]pyridin-1(2H)-yl}butanamide] | – | – | 1 mg/L | 2 mg/L
3 | CC(CCn1ccc(-c2ccc(OCC3CCCCC3)nc2)cc1=O)(C(=O)NO)S(C)(=O)=O (stereo not shown) [Example 181, 4-[6-(cyclohexylmethoxy)-2′-oxo-3,4′-bipyridin-1′(2′H)-yl]-N-hydroxy-2-methyl-2-(methylsulfonyl)butanamide] | 0.125 mg/L | 4 mg/L | – | –
4 | CC(CCn1ccc(-c2ccc(OCCO)cc2Cl)cc1=O)(C(=O)NO)S(C)(=O)=O (stereo not shown) [Example 232, 4-{4-[2-chloro-4-(2-hydroxyethoxy)phenyl]-2-oxopyridin-1(2H)-yl}-N-hydroxy-2-methyl-2-(methylsulfonyl)butanamide] | – | – | 16 mg/L | 16 mg/L
5 | Cc1cc(-c2ccn(CCC(C)(C(=O)NO)S(C)(=O)=O)c(=O)c2)ccn1 (stereo not shown) [Example 209, N-hydroxy-2-methyl-4-(2′-methyl-2-oxo-4,4′-bipyridin-1(2H)-yl)-2-(methylsulfonyl)butanamide] | – | – | 64 mg/L | 32 mg/L
6 | CC(CCn1ccc(-c2ccc(OCCCn3cncn3)cc2)cc1=O)(C(=O)NO)S(C)(=O)=O (stereo not shown) [Example 92, N-hydroxy-2-methyl-2-(methylsulfonyl)-4-[2-oxo-4-{4-[3-(1H-1,2,4-triazol-1-yl)propoxy]phenyl}pyridin-1(2H)-yl]butanamide] | 8 mg/L | 16 mg/L | – | –
7 | CC(CCn1ccc(-c2ccc(OCCCN3CCS(=O)(=O)CC3)cc2)cc1=O)(C(=O)NO)S(C)(=O)=O (stereo not shown) [Example 82, 4-[4-{4-[3-(1,1-dioxidothiomorpholin-4-yl)propoxy]phenyl}-2-oxopyridin-1(2H)-yl]-N-hydroxy-2-methyl-2-(methylsulfonyl)butanamide] | 8 mg/L | 32 mg/L | – | –
8 | CC(CCn1ccc(-c2ccc3c(c2)CCO3)cc1=O)(C(=O)NO)S(C)(=O)=O (stereo not shown) [Example 164, 4-[4-(2,3-dihydro-1-benzofuran-5-yl)-2-oxopyridin-1(2H)-yl]-N-hydroxy-2-methyl-2-(methylsulfonyl)butanamide] | 8 mg/L | 32 mg/L | – | –
9 | C[C@@](CCn1ccc(-c2ccc(Oc3nccc4occc34)cc2)cc1=O)(C(=O)NO)S(C)(=O)=O [Example 437, (2R)-4-{4-[4-(furo[3,2-c]pyridin-4-yloxy)phenyl]-2-oxopyridin-1(2H)-yl}-N-hydroxy-2-methyl-2-(methylsulfonyl)butanamide] | – | – | 0.25 mg/L | 4 mg/L
10 | CCOc1ccc(-c2ccn(CC[C@](C)(C(=O)NO)S(C)(=O)=O)c(=O)c2)c(F)c1 [Example 361, (2R)-4-[4-(4-ethoxy-2-fluorophenyl)-2-oxopyridin-1(2H)-yl]-N-hydroxy-2-methyl-2-(methylsulfonyl)butanamide] | – | – | 0.5 mg/L | 2 mg/L
11 | CC(CCn1ccc(-c2cccc3cccnc23)cc1=O)(C(=O)NO)S(C)(=O)=O (stereo not shown) [Example 189, N-hydroxy-2-methyl-2-(methylsulfonyl)-4-(2-oxo-4-quinolin-8-ylpyridin-1(2H)-yl)butanamide] | – | – | > 64 mg/L | 64 mg/L
12 | CC1CC(=O)Nc2ccc(-c3ccn(CCC(C)(C(=O)NO)S(C)(=O)=O)c(=O)c3)cc21 (mixture of isomers) [Example 484] | – | – | > 64 mg/L | > 64 mg/L
13 | C[C@@](CCn1ccc(-c2ccc(-n3ncc(O)n3)cc2)cc1=O)(C(=O)NO)S(C)(=O)=O [Example 407, (2R)-N-hydroxy-4-{4-[4-(4-hydroxy-2H-1,2,3-triazol-2-yl)phenyl]-2-oxopyridin-1(2H)-yl}-2-methyl-2-(methylsulfonyl)butanamide] | – | – | 16 mg/L | 32 mg/L
14 | CC(CCn1ccc(-c2ccc(OCCCN3CCOCC3)cc2Cl)cc1=O)(C(=O)NO)S(C)(=O)=O (stereo not shown) [Example 225, 4-{4-[2-chloro-4-(3-morpholin-4-ylpropoxy)phenyl]-2-oxopyridin-1(2H)-yl}-N-hydroxy-2-methyl-2-(methylsulfonyl)butanamide] | – | – | 8 mg/L | 16 mg/L
15 | Cc1cc(-c2ccn(CCC(C)(C(=O)NO)S(C)(=O)=O)c(=O)c2)ccc1OCCO (stereo not shown) [Example 235, N-hydroxy-4-{4-[4-(2-hydroxyethoxy)-3-methylphenyl]-2-oxopyridin-1(2H)-yl}-2-methyl-2-(methylsulfonyl)butanamide] | – | – | 8 mg/L | 8 mg/L
16 | CC(CCn1ccc(-c2ccc(OCCCN3CCCCC3)cc2)cc1=O)(C(=O)NO)S(C)(=O)=O (stereo not shown) [Example 77] | 64 mg/L | 64 mg/L | – | –
17 | C[C@@](CCn1ccc(-c2ccc(OCCCC3CCN(C(=O)CO)CC3)cc2)cc1=O)(C(=O)NO)S(C)(=O)=O [Example 313, (2R)-4-[4-{4-[3-(1-glycoloylpiperidin-4-yl)propoxy]phenyl}-2-oxopyridin-1(2H)-yl]-N-hydroxy-2-methyl-2-(methylsulfonyl)butanamide] | – | – | 0.5 mg/L | 4 mg/L
18 | CC(CCn1ccc(-c2ccc(OCCCn3cncn3)c(Cl)c2)cc1=O)(C(=O)NO)S(C)(=O)=O (stereo not shown) [Example 290, 4-[4-{3-chloro-4-[3-(1H-1,2,4-triazol-1-yl)propoxy]phenyl}-2-oxopyridin-1(2H)-yl]-N-hydroxy-2-methyl-2-(methylsulfonyl)butanamide] | – | – | 16 mg/L | 16 mg/L
19 | C[C@@](CCn1ccc(-c2ccc(OCCN3CCOCC3)c(Cl)c2Cl)cc1=O)(C(=O)NO)S(C)(=O)=O [Example 304, (2R)-4-{4-[2,3-dichloro-4-(2-morpholin-4-ylethoxy)phenyl]-2-oxopyridin-1(2H)-yl}-N-hydroxy-2-methyl-2-(methylsulfonyl)butanamide] | – | – | 4 mg/L | 16 mg/L
20 | Cc1nnn(-c2ccc(-c3ccn(CC[C@](C)(C(=O)NO)S(C)(=O)=O)c(=O)c3)cc2)n1 [Example 379, (2R)-N-hydroxy-2-methyl-2-(methylsulfonyl)-4-{4-[4-(5-methyl-2H-tetrazol-2-yl)phenyl]-2-oxopyridin-1(2H)-yl}butanamide] | – | – | 0.5 mg/L | 2 mg/L
21 | CC(CCn1ccc(-c2cc(Cl)c(OCCO)cc2Cl)cc1=O)(C(=O)NO)S(C)(=O)=O (stereo not shown) [Example 244, 4-{4-[2,5-dichloro-4-(2-hydroxyethoxy)phenyl]-2-oxopyridin-1(2H)-yl}-N-hydroxy-2-methyl-2-(methylsulfonyl)butanamide] | – | – | 32 mg/L | > 64 mg/L
22 | COc1ccc(-c2ccn(CCC(C)(C(=O)NO)S(C)(=O)=O)c(=O)c2)cc1F (stereo not shown) [Example 180, 4-[4-(3-fluoro-4-methoxyphenyl)-2-oxopyridin-1(2H)-yl]-N-hydroxy-2-methyl-2-(methylsulfonyl)butanamide] | 2 mg/L | 8 mg/L | – | –
23 | Cc1cc(-c2ccn(CC[C@](C)(C(=O)NO)S(C)(=O)=O)c(=O)c2)ccc1F [Example 325, (2R)-4-[4-(4-fluoro-3-methylphenyl)-2-oxopyridin-1(2H)-yl]-N-hydroxy-2-methyl-2-(methylsulfonyl)butanamide] | – | – | 0.5 mg/L | 0.5 mg/L
24 | CC(CCn1ccc(-c2ccc(F)c(F)c2)cc1=O)(C(=O)NO)S(C)(=O)=O (stereo not shown) [Example 134, 4-[4-(3,4-difluorophenyl)-2-oxopyridin-1(2H)-yl]-N-hydroxy-2-methyl-2-(methylsulfonyl)butanamide] | 4 mg/L | 4 mg/L | – | –
25 | CC(O)Cc1cccc(-c2ccn(CCC(C)(C(=O)NO)S(C)(=O)=O)c(=O)c2)c1 (stereo not shown) [Example 231, N-hydroxy-4-{4-[3-(2-hydroxypropyl)phenyl]-2-oxopyridin-1(2H)-yl}-2-methyl-2-(methylsulfonyl)butanamide] | – | – | > 64 mg/L | > 64 mg/L
26 | CC(CCn1ccc(-c2cccc(F)c2F)cc1=O)(C(=O)NO)S(C)(=O)=O (stereo not shown) [Example 147, 4-[4-(2,3-difluorophenyl)-2-oxopyridin-1(2H)-yl]-N-hydroxy-2-methyl-2-(methylsulfonyl)butanamide] | 2 mg/L | 1 mg/L | – | –
27 | CCS(=O)(=O)c1ccc(-c2ccn(CCC(C)(C(=O)NO)S(C)(=O)=O)c(=O)c2)cc1 (stereo not shown) [Example 136, 4-{4-[4-(ethylsulfonyl)phenyl]-2-oxopyridin-1(2H)-yl}-N-hydroxy-2-methyl-2-(methylsulfonyl)butanamide] | > 64 mg/L | 64 mg/L | – | –
28 | CC(CCn1ccc(-c2ccc(F)cc2F)cc1=O)(C(=O)NO)S(C)(=O)=O (stereo not shown) [Example 186, 4-[4-(2,4-difluorophenyl)-2-oxopyridin-1(2H)-yl]-N-hydroxy-2-methyl-2-(methylsulfonyl)butanamide] | – | – | 2 mg/L | 2 mg/L
29 | CC(O)Cc1ccc(-c2ccn(CCC(C)(C(=O)NO)S(C)(=O)=O)c(=O)c2)cc1 (stereo not shown) [Example 224, N-hydroxy-4-{4-[4-(2-hydroxypropyl)phenyl]-2-oxopyridin-1(2H)-yl}-2-methyl-2-(methylsulfonyl)butanamide] | – | – | 32 mg/L | 8 mg/L
